≈ marks a conversion by molar mass, not a printed value. Non-standard residues stand in square brackets, D forms with d. Residues, ends and D or L forms follow the SMILES beside them.
What was measured:
K. pneumoniae 727 = type: cell-based, Klebsiella Pneumoniae
Description: (§1) • A. The polypeptide Z4 composed entirely of dextrorotatory amino acids is called the dextrorotatory isomer of polypeptide Z4. The polypeptide Z4-D was prepared into a certain stock solution for use. 0.01% acetic acid (containing 0.2% BSA) was used as the diluent, and a series of gradient antimicrobial peptide solutions were prepared in sequence by a two-fold dilution method. • B. 100 μL of the above-mentioned antimicrobial peptide stock solution was taken and placed in a 96-well cell culture plate. Then, an equal volume of the test bacterial solution (approximately […]) was added to each well. A positive control (containing the bacterial solution but no antimicrobial peptide) and a negative control (containing neither the bacterial solution nor the peptide) were included, respectively. The test bacterial species include Pseudomonas aeruginosa (Pseudomonas aeruginosa PL1, Pseudomonas aeruginosa SP1), Staphylococcus aureus (Staphylococcus aureus 544, Staphylococcus aureus 103), Escherichia coli (Escherichia coli 729, Escherichia coli 112), Klebsiella Pneumoniae (Klebsiella Pneumoniae 106, Klebsiella Pneumoniae 727), Streptococcus pneumonia 383, and Acinetobacter baumannii (Acinetobacter baumannii 946, Acinetobacter baumannii 780). • C. […] The minimum inhibitory concentration is determined as the condition where no turbidity is observed at the bottom of the well with naked eyes.

K. pneumoniae 106 = type: cell-based, Klebsiella Pneumoniae
Description: as §1

A. baumannii 946 = type: cell-based, Acinetobacter baumannii
Description: as §1

A. baumannii 780 = type: cell-based, Acinetobacter baumannii
Description: as §1

E. coli 112 = type: cell-based, Escherichia coli
Description: as §1

E. coli 729 = type: cell-based, Escherichia coli
Description: as §1

S. aureus 103 = type: cell-based, Staphylococcus aureus
Description: as §1

S. aureus 544 = type: cell-based, Staphylococcus aureus
Description: as §1

various bacteria = assay: MIC against various bacteria (broad-spectrum antimicrobial activity); type: cell-based
Description: • A. The antimicrobial peptide was prepared into a certain stock solution for use. 0.01% acetic acid (containing 0.2% BSA) was used as the diluent, and a series of gradient antimicrobial peptide solutions were prepared sequentially by a two-fold dilution method. • B. 100 μL of the above-mentioned antimicrobial peptide stock solution was taken and placed in a 96-well cell culture plate. Then, an equal volume of the test bacterial solution (approximately 10^5 cells/mL) was added to each well. A positive control (containing the bacterial solution but no antimicrobial peptide) and a negative control (containing neither bacterial solution nor the peptide) were included, respectively. The test bacterial species include Pseudomonas aeruginosa (Pseudomonas aeruginosa PL1, Pseudomonas aeruginosa SP1), Staphylococcus aureus (Staphylococcus aureus 544, Staphylococcus aureus 103), Escherichia coli (Escherichia coli 729, Escherichia coli 112), Klebsiella Pneumoniae (Klebsiella Pneumoniae 106, Klebsiella Pneumoniae 727), Streptococcus pneumonia 383, Acinetobacter baumannii (Acinetobacter baumannii 946, Acinetobacter baumannii 780) (FIG. 1), or Pseudomonas aeruginosa (Pseudomonas aeruginosa PAO1), Staphylococcus aureus (Staphylococcus aureus SP1), and a mixed solution of the above two bacteria (FIG. 2). • C. The culture plate was placed in a constant temperature incubator at 37° C. for 20 h. The minimum inhibitory concentration is determined as the condition where no turbidity is observed at the bottom of the well with naked eyes.
• A. The polypeptide Z4 composed entirely of dextrorotatory amino acids is called the dextrorotatory isomer of polypeptide Z4. The polypeptide Z4-D was prepared into a certain stock solution for use. […] The minimum inhibitory concentration is determined as the condition where no turbidity is observed at the bottom of the well with naked eyes.

P. aeruginosa SP1 = type: cell-based, Pseudomonas aeruginosa
Description: as §1

P. aeruginosa PL1 = type: cell-based, Pseudomonas aeruginosa
Description: as §1

S. pneumoniae 383 = type: cell-based, Streptococcus pneumonia
Description: as §1

[1] = tested on: mixed bacterial solution of P. aeruginosa PAO1 and S. aureus SP1; type: cell-based; details: within 0-120 minutes of proteinase K treatment, remained unchanged
Description: After ultrasonic treatment of polypeptide Z4 and polypeptide Z4-D for 30 min, they were placed at room temperature for 2 h to promote their self-assembly. Subsequently, proteinase K with a final concentration of 0.2 g/mL was mixed with the polypeptide solution (final concentration of 640 μM) and incubated at 37° C. for 0, 30, 60, 90 or 120 min respectively. Then, according to the scheme described in Example 2, the MICs of the polypeptides against the mixed bacterial solution of P. aeruginosa PAO1 and S. aureus SP1 under different treatment conditions were determined.

MIC (K. pneumoniae 727): 32 µM (≈ 46.7 µg/mL) | MIC (K. pneumoniae 106): 128 µM (≈ 187 µg/mL) | MIC (A. baumannii 946): 4 µM (≈ 5.84 µg/mL) | MIC (A. baumannii 780): 16 µM (≈ 23.4 µg/mL) | MIC (E. coli 112): 4 µM (≈ 5.84 µg/mL) | MIC (E. coli 729): 4 µM (≈ 5.84 µg/mL) | MIC (S. aureus 103): 4 µM (≈ 5.84 µg/mL) | MIC (S. aureus 544): 4 µM (≈ 5.84 µg/mL) | MIC (P. aeruginosa SP1): 4 µM (≈ 5.84 µg/mL) | MIC (P. aeruginosa PL1): 16 µM (≈ 23.4 µg/mL) | MIC (S. pneumoniae 383): 4 µM (≈ 5.84 µg/mL) | MIC after proteinase K treatment [1]: 4 µM (≈ 5.84 µg/mL)
SMILES: NCCCC[C@@H](NC(=O)[C@@H](Cc1c[nH]c2ccccc12)NC(=O)[C@H](N)Cc1c[nH]c2ccccc12)C(=O)N[C@H](CCCCN)C(=O)N[C@H](Cc1c[nH]c2ccccc12)C(=O)N[C@H](CCCCN)C(=O)N[C@H](CCCCN)C(=O)N[C@H](Cc1c[nH]c2ccccc12)C(=O)N[C@H](Cc1c[nH]c2ccccc12)C(N)=O [Z4-D] (H-[dW][dW][dK][dK][dW][dK][dK][dW][dW]-NH2; N-terminus assumed)
broad-spectrum antimicrobial activity (various bacteria): good broad-spectrum antimicrobial activity
